# From patent US20110071163A1, “USE OF AN OPIOID RECEPTOR ANTAGONIST FOR THE TREATMENT OR PREVENTION OF GASTROINTESTINAL TRACT DISORDERS” (ADOLOR CORPORATION, priority 2009, published 2011)
# Values joined by “and” are separate entries in the source; they are usually repeats but may differ in a detail not shown here. Equal values may be shown once. “Also recorded” adds a separate entry of the source. Read-outs that look alike come from different tables or passages of the source.
# Assays:
# [1] = Plasma protein binding (human); format: in vitro ADME; details: read-out: Plasma protein binding (% free drug)
# [2] = 0.5 mg BID, patients with OIC or OBD, Phase 2 (Webster et al. 2008), cited from earlier work
# [3] = tested on: opioid receptors in the central nervous system; assay: Rat formalin test: reversal of morphine analgesia; format: in vivo; details: for Potency of naltrexone relative to Compound I in reversing the effects of morphine in the CNS: morphine 10 mg/kg s.c., naltrexone s.c., Compound I oral
# Method: Rats were injected with the irritant formalin and with 10 mg/kg of morphine subcutaneously. The amount of analgesia was determined by the reduction in the number of times the rat licked or paid attention to the site of formalin injection (events). Rats were dosed either with 0.02 mg/kg naltrexone (subcutaneous dose) or 1, 3 or 10 mg/kg Compound I (oral dose) to determine the ability of the compounds to reverse the analgesic effect of morphine. […] The reversal of morphine-induced analgesia by opioid receptor antagonists in the formalin test is believed to be primarily a centrally-mediated effect.
# [4] = tested on: opioid receptors; assay: Reversal of morphine-induced inhibition of gastrointestinal transit of charcoal meal in mice; format: in vivo; details: Compound I oral dose
# Method: Mice were either dosed with 10 μg/kg morphine intracerebroventricularly or with 1 mg/kg morphine subcutaneously. The degree of gastrointestinal transit of charcoal meal in the mice was measured in the absence of Compound I and in the presence of varying oral doses of Compound I in order to determine the ability of the compound to reverse the inhibition of gastrointestinal (GI) transit induced by morphine. The minimum effective dose of Compound I required to reverse GI transit inhibition in mice dosed with morphine directly into the CNS was determined to be about 3.0 mg/kg oral dose. (FIG. 2) In contrast, the effective dose of Compound I required to reverse GI transit inhibition in mice dosed with morphine systemically was determined to be about 0.16 mg/kg oral dose.
# [5] = tested on: P-glycoprotein (P-gp) transporter; assay: Partitioning in plasma and brain of wild-type and P-glycoprotein knockout mice; format: in vivo
# Method: Wild-type or P-glycoprotein (P-gp) knockout mice were dosed with 2.5 mg/kg of Compound I intravenously. The mice were sacrificed and the amounts of Compound I in the blood and in the brain were assayed using standard techniques. […] Moreover, blood-brain barrier penetration of Compound I increased 7- to 19-fold in knockout mice that were deficient in the P-gp transporter.
# [6] = target: T1, cloned human μ-opioid receptors (Homo sapiens, UniProt P35372); assay: In vitro receptor binding in CHO cell membranes; details: CHO cell membranes expressing cloned human μ-opioid receptors
# T1 construct: expressed in transfected cells; host or cells: CHO cells (membranes)
# [7] = Phase 1 oral pharmacokinetics of Compound I in healthy subjects; format: in vivo, human; details: for Mean free Cmax plasma level: 1 mg single oral dose, healthy subjects
# Method: (§1) The first approach was a calculation based on comparison of pharmacokinetic and pharmacological data for the highly peripheralized opioid receptor antagonist alvimopan. […] Webster et al. (2008) Pain 137:428-440.
# If there is a potential for a degree of drug accumulation upon repeated dosing regimens, the doses associated with efficacy for treating OIC or OBD may be appreciably lower than the doses calculated above, i.e., as low as 0.01 to 0.02 mg whole body dose QD or BID (for a human weighing approximately 70 kg).
# [8] = Plasma protein binding (mouse); format: in vitro ADME; details: read-out: Plasma protein binding (% free drug)
# [9] = tested on: opioid receptors in the CNS; assay: Phase 1 pharmacodynamic markers of central opioid receptor antagonism (morphine-induced miosis, ACTH, cortisol); format: in vivo, human; details: humans
# Method: Determination of the lowest dose of Compound I that produces antagonism of opioid receptors in the CNS was addressed directly by examining the reported effect of Compound I on pharmacodynamic markers of central opioid receptor antagonism that were measured in the single and multiple dose Phase 1 clinical studies, i.e., the reversal of morphine-induced miosis (the effect on pupil diameter) and increases in adrenocorticotropic hormone (ACTH) and cortisol. The observed whole body dose of Compound I associated with a threshold reversal of morphine-induced miosis was 10 mg. Likewise, the observed whole body dose of Compound I associated with threshold increases in ACTH and cortisol was between 10 and 25 mg. A conservative estimate of the whole body dose for central opioid receptor antagonism was then determined by reducing these observed threshold doses by a half-log factor (i.e., 3-fold). Thus, the minimum doses of Compound I associated with pharmacologically relevant antagonism of opioid receptors in the CNS were conservatively estimated to be in the range of from about 3 mg to about 10 mg.
# [10] = target: T2, μ-opioid receptor (Homo sapiens, UniProt P35372); assay: Calculated effective dose and pharmacokinetic model of Compound I for treating OIC or OBD; details: humans
# T2 construct: expressed in transfected cells; host or cells: CHO cells (membranes)
# From the text: (§2) There are a number of approaches to determining the effective dose of Compound I for treating OIC or OBD. Four are outlined below. Depending on the approach, a number of basic assumptions were made in calculating the effective dose of Compound I for treating OIC or OBD: (i) The μ-opioid receptor is the primary target of Compound I to produce efficacy in the treatment of OIC or OBD, although other opioid receptors may also play a role. (ii) The systemic presence of Compound I in the periphery (but not in the CNS) is sufficient to produce robust efficacy in treating OIC or OBD. Thus, calculations were based on systemic plasma concentrations as opposed to possible topical or local effects in gut tissues, though these may also contribute to efficacy. (iii) The pharmacokinetic properties, specifically the oral bioavailability, of Compound I will be roughly similar in healthy volunteers and in patients with OIC or OBD.
# as §1
# A second approach was a calculation based on the potency (Ki) of Compound I as an antagonist for the […] receptor.
# A third approach was to generate a pharmacokinetic model for Compound I at low doses. This was accomplished by assuming a linear relationship between dose and all parameters of the plasma time course for the 1 mg dose of Compound I, and extrapolating these to lower doses.
# [11] = Phase I multiple ascending dose clinical study in subjects with OIC; format: in vivo, human
# From the text: The objective of the Phase I multiple ascending dose clinical study was to evaluate the safety, tolerability, pharmacokinetics, and clinical effect of multiple ascending doses of Compound I administered twice daily (BID) to subjects who have opioid induced constipation (OIC) as a result of chronic opioid therapy for persistent noncancer pain. The first part of the study was a randomized, double blind, placebo controlled, multiple ascending dose study during which subjects took 4 oral doses of study medication over 2 days while confined to the study unit. Each of the 0.10 mg, 0.25 mg, 0.35 mg, 0.50 mg […] BID dose cohorts included 4 subjects, and randomization was unbalanced, with a 3:1 ratio of Compound I treatment (n=3) to placebo treatment (n=1). The 0.75 mg BID cohort included only 2 subjects. Assessments of clinical effect included the following measures, which were assessed starting immediately after the first dose of study medication through discharge on day 3: (i) time to first bowel movement after the first dose of study medication; (ii) number of bowel movements; and (iii) bowel movement Comfort Scores, stool weight, and stool consistency as measured by the Bristol Stool Scale for each bowel movement that occurs while the subject was confined to the study unit.
# For pharmacokinetic analyses, blood samples were collected from each subject on day 1 at approximately 1 hour before the first dose of study medication (time 0) and at each of the following times after the first dose of study medication: 15 min, 30 min, 60 min, 90 min, 2 h, 3 h, 4 h, 6 h, 8 h, 10 h, and 12 h. FIGS. 7A, 7B and 7C indicate the plasma levels of Compound I obtained after the first dose over the dosing interval of 12 h and for each of the 5 doses tested (0.10 mg, 0.25 mg, 0.35 mg, 0.50 mg and 0.75 mg BID).
# [12] = Oral bioavailability in cynomologus monkey; details: in vivo, 0.1 mg/kg to 0.5 mg/kg
# From the text: as §2
# [13] = Oral bioavailability in rat; format: in vivo
# [14] = 0.10 mg and 0.25 mg doses, preliminary
# T2 sequence (P35372 whole entry): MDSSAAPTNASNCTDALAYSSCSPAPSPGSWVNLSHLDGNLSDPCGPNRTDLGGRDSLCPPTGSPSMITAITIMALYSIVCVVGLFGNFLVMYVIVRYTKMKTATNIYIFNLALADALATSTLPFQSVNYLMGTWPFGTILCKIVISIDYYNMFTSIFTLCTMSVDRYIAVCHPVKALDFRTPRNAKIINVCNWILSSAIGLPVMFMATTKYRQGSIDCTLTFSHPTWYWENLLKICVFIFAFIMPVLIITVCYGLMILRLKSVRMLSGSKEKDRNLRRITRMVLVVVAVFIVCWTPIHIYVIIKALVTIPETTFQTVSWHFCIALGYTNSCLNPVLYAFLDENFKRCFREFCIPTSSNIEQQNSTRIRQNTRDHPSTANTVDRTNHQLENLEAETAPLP
# T1 sequence (P35372 whole entry): as above
compound,measurement,setting,value
"C[C@H]1CN(C[C@H](Cc2ccccc2)C(=O)NCC(=O)O)CC[C@@]1(C)c1cccc(O)c1 [Alvimopan, alvimopan]",fraction unbound,[1],0.203
same,Mean free Cmax plasma level,[2],0.1^1 ng/ml
same,Mean free Cmax plasma level,[2]; listed as alvimopan,approximately 0.1 ng/ml
"COc1cc(CNCCC2CCOCC2)ccc1Oc1cnc(C(N)=O)cn1 [Compound I, 5-(2-methoxy-4-{[2-(tetrahydro-pyran-4-yl)-ethylamino]-methyl}-phenoxy)-pyrazine-2-carboxamide]",Times less potent than naltrexone as antagonist of opioid receptors in the central nervous system,[3],at least 100 times
same,Minimum effective dose to reverse GI transit inhibition,[4]; morphine 10 μg/kg intracerebroventricularly (direct CNS),about 3.0 mg/kg
same,Effective dose to reverse GI transit inhibition,[4]; morphine 1 mg/kg subcutaneously (systemic),about 0.16 mg/kg
same,P-gp transport,[5]; concluded from knockout mice,substrate for the efflux transporter P-gp
same,Compound I in blood plasma relative to brain,"[5]; wild type mice, 2.5 mg/kg intravenously",17 times
same,Ki,[6],0.36 nM
same,Mean free Cmax plasma level,[7]; converted with MW 386.4 g/mol,2.98 nM
same,Mean free Cmax plasma level,[7]; free drug estimated with mouse plasma protein binding,1.15 ng/ml and 1.15^2 ng/ml
same,half-life,"[7]; human, plasma, oral, humans, doses of 1-3 mg",~12 h
same,Oral pharmacokinetics versus dose,"[7]; humans, dose range 1 mg to 100 mg",highly consistent and dose-proportional
same,fraction unbound,[1],0.738
same,fraction unbound,[8],0.64
same,Whole body dose associated with threshold reversal of morphine-induced miosis,[9],10 mg
same,Whole body dose effective in treating OIC or OBD without antagonizing CNS μ-opioid receptors (calculated),"[10]; QD or BID, multiple rationales",approximately 0.1 mg/day
same,Whole body dose needed to achieve 0.36 nM of free drug (second approach),[10]; linear extrapolation,0.12 mg
same,Dose needed to produce a free drug plasma Cmax of 0.1 ng/ml,[10]; linear extrapolation below 1 mg,0.087 mg
same,Amount effective for treating OIC or OBD confirmed in Phase I clinical studies,[11],approximately 0.1 mg/day
same,Pharmacological effect,[11]; [14],produced the desired pharmacological effects
same,Tolerability,[11]; [14],well-tolerated; also recorded: well tolerated
same,bioavailability,[12],~100%
same,Oral bioavailability,[13],high oral bioavailability
O=C1CC[C@@]2(O)[C@H]3Cc4ccc(O)c5c4[C@@]2(CCN3CC2CC2)[C@H]1O5 [naltrexone],Potency of naltrexone relative to Compound I in reversing the effects of morphine in the CNS,[3],more than 100 times
same,Potency of naltrexone relative to Compound I in reversing the effects of morphine in the CNS,[3]; listed as Naltrexone,approximately 100 times
